Compound in one experiment: Cn1nnc2c(C(N)=O)ncn2c1=O [TEMOZOLOMIDE]
In words: surviving fraction relative to DMSO-only wells; higher = less growth inhibition. The settings on record: exposure time: 5 days. Put shortly:
(§1)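 In 384-well plates, 250–500 log-phase tumour cells per well were given 24 hours before five days of continuous exposure to inhibitors at 0.5, 1, 5, 10, 50, 100, 500 and 1000 nM. Surviving fraction is luminescence from CellTiter-Glo, normalised to the median of wells containing DMSO alone. Reading took place after 10 minutes at room temperature.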

Compound in another experiment: C[C@@H](Oc1cc(-c2cnn(C3CCNCC3)c2)cnc1N)c1c(Cl)ccc(F)c1Cl [CRIZOTINIB]
The description is as above. The settings on record: exposure time: 5 days. A digest of the protocol: as §1

± gives the standard deviation of the averaged measurements.

Turning to MHM BONE, the surviving fraction in the experiment with TEMOZOLOMIDE (0.5 nM) was found to be 0.9827 ± 0.0021; with TEMOZOLOMIDE (1 nM), 0.975 ± 0.007; with TEMOZOLOMIDE (5 nM), 1.01 ± 0.043; with TEMOZOLOMIDE (10 nM), 1.04 ± 0.014; in the experiment with TEMOZOLOMIDE (50 nM) it was 0.998 ± 0.042; with TEMOZOLOMIDE (100 nM), 1.03 ± 0.029. In addition, the surviving fraction is 0.973 ± 0.032 with TEMOZOLOMIDE (500 nM); 0.998 ± 0.0056 with TEMOZOLOMIDE (1000 nM); 1.03 ± 0.037 in the experiment with CRIZOTINIB (0.5 nM); 1.02 ± 0.034 with CRIZOTINIB (1 nM); 1.09 ± 0.053 with CRIZOTINIB (5 nM); 1.1 ± 0.047 in the experiment with CRIZOTINIB (10 nM). Besides, the surviving fraction with CRIZOTINIB (50 nM) stood at 1.07 ± 0.02; with CRIZOTINIB (100 nM), 1.05 ± 0.021; with CRIZOTINIB (500 nM), 0.96 ± 0.011; with CRIZOTINIB (1000 nM), 0.884 ± 0.031.

With SCC36 HEADNECK, the surviving fraction with TEMOZOLOMIDE (0.5 nM) turned out to be 1.04 ± 0.065; in the experiment with TEMOZOLOMIDE (1 nM) it was 1.08 ± 0.088; in the experiment with TEMOZOLOMIDE (5 nM), 1.19 ± 0.11; with TEMOZOLOMIDE (10 nM), 1.14 ± 0.069; with TEMOZOLOMIDE (50 nM), 1.07 ± 0.056; with TEMOZOLOMIDE (100 nM) it was 1.08 ± 0.14. In addition, the surviving fraction turned out to be 1.11 ± 0.1 with TEMOZOLOMIDE (500 nM); 1.05 ± 0.078 with TEMOZOLOMIDE (1000 nM); 1.05 ± 0.11 with CRIZOTINIB (0.5 nM); 1.06 ± 0.026 in the experiment with CRIZOTINIB (1 nM); 1.2 ± 0.088 in the experiment with CRIZOTINIB (5 nM); 1.24 ± 0.1 with CRIZOTINIB (10 nM). Besides, the surviving fraction with CRIZOTINIB (50 nM) came out at 1.13 ± 0.17; with CRIZOTINIB (100 nM), 1.07 ± 0.22; with CRIZOTINIB (500 nM), 0.552 ± 0.072; in the experiment with CRIZOTINIB (1000 nM) it was 0.301 ± 0.025.

Regarding MDAMB453 BREAST, the surviving fraction with TEMOZOLOMIDE (0.5 nM) came to 1.07 ± 0.015; with TEMOZOLOMIDE (1 nM), 1.097 ± 0.0087; with TEMOZOLOMIDE (5 nM), 1.13 ± 0.016; with TEMOZOLOMIDE (10 nM), 1.1 ± 0.076; with TEMOZOLOMIDE (50 nM), 1.14 ± 0.058; in the experiment with TEMOZOLOMIDE (100 nM) it was 1.09 ± 0.11. The surviving fraction with TEMOZOLOMIDE (500 nM) is 1.07 ± 0.075; with TEMOZOLOMIDE (1000 nM) it was 1.09 ± 0.056; with CRIZOTINIB (0.5 nM), 1.1 ± 0.049; with CRIZOTINIB (1 nM), 1.06 ± 0.064; with CRIZOTINIB (5 nM), 1.17 ± 0.079; with CRIZOTINIB (10 nM) it was 1.14 ± 0.12. Further, the surviving fraction in the experiment with CRIZOTINIB (100 nM) was 1.11 ± 0.039; with CRIZOTINIB (500 nM), 0.844 ± 0.042; in the experiment with CRIZOTINIB (1000 nM), 0.803 ± 0.043.

Consider HCC1806 BREAST, for which the surviving fraction in the experiment with TEMOZOLOMIDE (0.5 nM) turned out to be 1 ± 0.043; with TEMOZOLOMIDE (1 nM), 1.083 ± 0.0076; in the experiment with TEMOZOLOMIDE (5 nM), 1.19 ± 0.052; with TEMOZOLOMIDE (10 nM) it was 1.07 ± 0.081; in the experiment with TEMOZOLOMIDE (50 nM) it was 1.12 ± 0.086; in the experiment with TEMOZOLOMIDE (100 nM) it was 1.09 ± 0.034. In addition, the surviving fraction with TEMOZOLOMIDE (500 nM) was 1.05 ± 0.16; in the experiment with TEMOZOLOMIDE (1000 nM), 1.12 ± 0.11; with CRIZOTINIB (0.5 nM), 1.02 ± 0.13; with CRIZOTINIB (1 nM) it was 1.09 ± 0.056; with CRIZOTINIB (5 nM) it was 1.1 ± 0.065; with CRIZOTINIB (50 nM) it was 1.13 ± 0.066. Also, the surviving fraction in the experiment with CRIZOTINIB (500 nM) turned out to be 0.634 ± 0.036; with CRIZOTINIB (1000 nM), 0.318 ± 0.007.

With HOSMNG BONE, the surviving fraction was determined as 0.835 ± 0.15 with TEMOZOLOMIDE (0.5 nM); 0.927 ± 0.11 in the experiment with TEMOZOLOMIDE (1 nM); 0.795 ± 0.051 in the experiment with TEMOZOLOMIDE (5 nM); 0.89 ± 0.03 in the experiment with TEMOZOLOMIDE (10 nM); 0.938 ± 0.12 with TEMOZOLOMIDE (50 nM); 0.936 ± 0.16 with TEMOZOLOMIDE (100 nM). Besides, the surviving fraction with TEMOZOLOMIDE (500 nM) is 0.995 ± 0.12; in the experiment with TEMOZOLOMIDE (1000 nM), 0.957 ± 0.074; in the experiment with CRIZOTINIB (0.5 nM) it was 0.954 ± 0.09; in the experiment with CRIZOTINIB (1 nM), 0.983 ± 0.1; with CRIZOTINIB (50 nM), 0.649 ± 0.012; with CRIZOTINIB (100 nM), 0.501 ± 0.017. Besides, the surviving fraction with CRIZOTINIB (500 nM) amounted to 0.329 ± 0.032; with CRIZOTINIB (1000 nM), 0.227 ± 0.011.

As to SG32 HEADNECK, the surviving fraction with TEMOZOLOMIDE (0.5 nM) came to 1.14 ± 0.019; with TEMOZOLOMIDE (1 nM), 1.44 ± 0.39; with TEMOZOLOMIDE (5 nM), 1.19 ± 0.12; in the experiment with TEMOZOLOMIDE (10 nM), 1.37 ± 0.22; with TEMOZOLOMIDE (50 nM), 1.26 ± 0.071; in the experiment with TEMOZOLOMIDE (100 nM), 1.13 ± 0.097. Further, the surviving fraction in the experiment with TEMOZOLOMIDE (500 nM) worked out at 1.2 ± 0.18; with TEMOZOLOMIDE (1000 nM), 1.67 ± 0.62; with CRIZOTINIB (0.5 nM) it was 1.09 ± 0.096; with CRIZOTINIB (1 nM), 1.05 ± 0.096; with CRIZOTINIB (5 nM), 1.21 ± 0.066; with CRIZOTINIB (10 nM) it was 0.936 ± 0.088. Also, the surviving fraction in the experiment with CRIZOTINIB (100 nM) stood at 1.01 ± 0.12; in the experiment with CRIZOTINIB (500 nM) it was 0.541 ± 0.036; in the experiment with CRIZOTINIB (1000 nM) it was 0.352 ± 0.016.

MFM223 BREAST: the surviving fraction in the experiment with TEMOZOLOMIDE (0.5 nM) was 1.46 ± 0.65; with TEMOZOLOMIDE (1 nM), 1.38 ± 0.44; in the experiment with TEMOZOLOMIDE (5 nM), 1.5 ± 0.54; with TEMOZOLOMIDE (10 nM) it was 1.49 ± 0.63; in the experiment with TEMOZOLOMIDE (50 nM), 1.38 ± 0.52; in the experiment with TEMOZOLOMIDE (100 nM), 1.19 ± 0.07. Besides, the surviving fraction with TEMOZOLOMIDE (500 nM) is 1.38 ± 0.48; with TEMOZOLOMIDE (1000 nM), 1.17 ± 0.08; with CRIZOTINIB (0.5 nM), 1.21 ± 0.058; with CRIZOTINIB (1 nM) it was 1.2 ± 0.019; with CRIZOTINIB (5 nM), 1.21 ± 0.058; with CRIZOTINIB (10 nM), 1.11 ± 0.033. The surviving fraction came to 1.07 ± 0.058 with CRIZOTINIB (50 nM), 1.07 ± 0.011 with CRIZOTINIB (500 nM) and 1.084 ± 0.0027 with CRIZOTINIB (1000 nM).

On to MDAMB134 BREAST, for which the surviving fraction was 0.928 ± 0.0085 in the experiment with TEMOZOLOMIDE (0.5 nM); 0.981 ± 0.033 in the experiment with TEMOZOLOMIDE (1 nM); 0.926 ± 0.14 with TEMOZOLOMIDE (5 nM); 0.902 ± 0.15 with TEMOZOLOMIDE (10 nM); 0.975 ± 0.23 with TEMOZOLOMIDE (50 nM); 1.05 ± 0.17 with TEMOZOLOMIDE (100 nM). Moreover, the surviving fraction was 0.953 ± 0.2 with TEMOZOLOMIDE (500 nM); 1.11 ± 0.08 with TEMOZOLOMIDE (1000 nM); 1.01 ± 0.028 with CRIZOTINIB (1 nM); 0.93 ± 0.068 with CRIZOTINIB (5 nM); 1.06 ± 0.04 with CRIZOTINIB (10 nM); 0.91 ± 0.0085 in the experiment with CRIZOTINIB (50 nM). The surviving fraction in the experiment with CRIZOTINIB (500 nM) was 1.05 ± 0.019; with CRIZOTINIB (1000 nM), 0.947 ± 0.026.

As to NCIH441 LUNG, the surviving fraction with TEMOZOLOMIDE (0.5 nM) was determined as 1.07 ± 0.065; with TEMOZOLOMIDE (1 nM), 1.14 ± 0.06; with TEMOZOLOMIDE (5 nM), 1.21 ± 0.059; with TEMOZOLOMIDE (10 nM), 1.06 ± 0.066; in the experiment with TEMOZOLOMIDE (50 nM), 1.04 ± 0.081; with TEMOZOLOMIDE (100 nM), 1.13 ± 0.074. Moreover, the surviving fraction in the experiment with TEMOZOLOMIDE (500 nM) worked out at 1.11 ± 0.086; with TEMOZOLOMIDE (1000 nM), 1.19 ± 0.058; with CRIZOTINIB (0.5 nM) it was 1.23 ± 0.069; with CRIZOTINIB (1 nM) it was 1.2 ± 0.067; with CRIZOTINIB (5 nM), 1.09 ± 0.038; with CRIZOTINIB (10 nM), 1.12 ± 0.043. Besides, the surviving fraction stood at 1.04 ± 0.045 with CRIZOTINIB (50 nM), 0.967 ± 0.089 with CRIZOTINIB (100 nM), 1.02 ± 0.058 in the experiment with CRIZOTINIB (500 nM) and 0.83 ± 0.16 in the experiment with CRIZOTINIB (1000 nM).

The values are drawn from the supplement of paper PMC6045584.
